test system: monoclonal antibody NEAMP 48.2; experiment: Microparticle agglutination immunoassay with conjugate (12) and N-ethylamphetamine antibody-coated particles, percent cross-reactivity; assay type: binding; conditions: NEAMP 48.2 antibody with conjugate (12)
Description: The conjugate reagent was prepared as described in Example 16.
An antibody-coated microparticle was prepared as described in Example 16 using monoclonal antibody NEAMP 48.2 described in U.S. 2004/0077021. A microparticle reagent was then prepared as described in Example 16.
The assay was carried out on a Roche/Hitachi 917 analyzer as described in Example 16.
Percent cross-reactivity was determined in an ammunoassay. A standard curve was established using known amounts of the target analyte methylenedioxyethylamphetamine (MDEA). Known amounts of various amphetamine-related drugs were to be analyzed as samples in the immunoassay, and apparent concentrations of these drugs were generated from the standard curve. Apparent concentration of the drug, divided by actual concentration and multiplied by 100, is the percent cross-reactivity of this drug.

Q: How did the “Cross-reactivity” value turn out when `NCCc1ccc(O)cc1` [Tyramine] was run?
A: essentially none

Q: `CN[C@@H](C)[C@H](O)c1ccccc1` [l-ephedrine] was tested. Which “Cross-reactivity” value did it give?
A: essentially none

Q: Which “Cross-reactivity” value does the source give for `CN[C@@H](C)[C@@H](O)c1ccccc1` [d-pseudoephedrine] here?
A: essentially none

Q: How did the “Cross-reactivity” value turn out when `CC(C)(N)Cc1ccccc1` [Phentermine] was run?
A: essentially none

Q: With `CCNC(C)Cc1ccc2c(c1)OCO2` (centres unmarked) [MDEA, 3,4-methylenedioxy-N-ethylamphetamine] as the compound, how does the “Cross-reactivity” value read?
A: good cross-reactivity

test system: monoclonal antibody specific for methamphetamine; experiment: Microparticle agglutination immunoassay with conjugate (12) and methamphetamine antibody-coated particles, percent cross-reactivity; assay type: binding; conditions: methamphetamine antibody with conjugate (12)

Q: How did the “Cross-reactivity” value turn out when `CCC(Cc1ccc2c(c1)OCO2)NC` (centres unmarked) [MBDB, 3,4-methylenedioxyphenyl-N-methylbutanamine] was run?
A: good cross-reactivity

Q: `CN[C@@H](C)Cc1ccccc1` [d-Methamphetamine] was tested. Which “Cross-reactivity” value did it give?
A: good cross-reactivity

Q: `CNC(C)Cc1ccc2c(c1)OCO2` (centres unmarked) [MDMA, 3,4-methylenedioxy-N-methylamphetamine] was tested. Which “Cross-reactivity” value did it give?
A: good cross-reactivity

Source: patent publication US7732160B2, “Methamphetamine derivatives and conjugates for immunoassay” (Roche Diagnostics Operations, Inc., priority 2004, dated 2010)
